These results are taken from ChEMBL document CHEMBL4130505, “4-Quinolone hybrids and their antibacterial activities” (Eur J Med Chem, 2017).

In series [1] the test system is Escherichia coli. Briefly: Antibacterial activity against Escherichia coli NCTC 10419 infected in CF mouse assessed as protection against bacterial infection administered orally at 1 and 4 hrs post infection measured after 1 week. It is filed as functional, organism-based.
Series [2] deals with Escherichia coli. The series is described as follows: microbe, parasite or virus in culture. The conditions noted are these: NCTC 10419.
Description: Antibacterial activity against Escherichia coli NCTC 10419 after 18 to 20 hrs by agar dilution method
In series [3] the test system is Klebsiella pneumoniae. The series is described as follows: Antibacterial activity against Klebsiella pneumoniae by microdilution method. It is filed as functional. Background: Dilution methods test growth across graded concentrations, often in twofold steps.
The nature of series [4]: Solubility of the compound in water. It is filed as physicochemical.
Series [5] concerns Escherichia coli. Briefly: Antibacterial activity against Escherichia coli. It counts as functional.
Series [6] deals with Escherichia coli. The series is described as follows: Potency index, ratio of ciprofloxacin MIC to compound MIC for Escherichia coli. It counts as functional.
The test system of series [7] is Escherichia coli. The series is described as follows: Potency index, ratio of ciprofloxacin EC50 to compound EC50 for antibacterial activity against Escherichia coli NCTC 10419 infected in CF mouse. It counts as functional.
Series [8] relates to Escherichia coli. The series is described as follows: Potency index, ratio of ciprofloxacin MIC to compound MIC for Escherichia coli NCTC 10419. It counts as functional.

SMILES strings stand for the structures. Values after ≈ are worked out from the molar mass of the structure shown.

In the case of `O=C(O)c1cn(C2CC2)c2cc(N3CCNCC3)c(F)cc2c1=O` [CIPROFLOXACIN], in series [1], the EC50 came out at 1.25 mg/kg. In series [2], this molecule had an MIC of 1.1 nM (≈ 0.364 ng/mL).

In series [3], `CC1=NOc2c(N3CCN(C)CC3)c(F)cc3c(=O)c(C(=O)O)cn1c23` registered an MIC of 8 µg/mL (≈ 22.2 µM).

Regarding `CC1=NOc2c(N3CCc4ccccc4C3)c(F)cc3c(=O)c(C(=O)O)cn1c23`, the MIC in series [3] was found to be 8 µg/mL (≈ 20.3 µM).

Turning to `CO/N=C1\CCN(c2cc3c(cc2F)c(=O)c(C(=O)O)cn3C2CC2)CC1N.CS(=O)(=O)O` (stereo unspecified), in series [4], the solubility (commonly the dissolved amount per volume that the medium holds) was 22.5 mg/mL.

`O=C1OCC(OCCN2CCN(c3cc4c(cc3F)c(=O)c(C(=O)O)cn4C3CC3)CC2)=C1c1ccccc1F` yielded an MIC in series [5] of 0.11 µg/mL (≈ 0.199 µM). For the same molecule, the Ratio in series [6] is given as 50.

Consider `COc1cc(Cc2cnc(/N=C3\C(=O)N(CN4CCN(c5cc6c(cc5F)c(=O)c(C(=O)O)cn6C5CC5)CC4)c4ccc(C)cc43)nc2N)cc(OC)c1OC`, for which the EC50 in series [1] is 0.62 mg/kg. Moreover, in series [7], the “Ratio EC50” value is 2. The Ratio in series [8] is recorded as 5.5.

Turning to `CC1=NOc2c(N3CCC(C)CC3)c(F)cc3c(=O)c(C(=O)O)cn1c23`, the MIC in series [3] was determined as 8 µg/mL (≈ 22.3 µM).
